Among the data in ChEMBL document CHEMBL3879898, “Substituted pyrazolyl compounds for the treatment of inflammationantiinflammatory agents; rheumatic diseases; anticancer agents” (2007) are IC50 values, retold here.

In this test the target is T1, Inhibitor of nuclear factor kappa-B kinase subunit beta (Homo sapiens, UniProt O14920).
T1 sequence (O14920 whole entry): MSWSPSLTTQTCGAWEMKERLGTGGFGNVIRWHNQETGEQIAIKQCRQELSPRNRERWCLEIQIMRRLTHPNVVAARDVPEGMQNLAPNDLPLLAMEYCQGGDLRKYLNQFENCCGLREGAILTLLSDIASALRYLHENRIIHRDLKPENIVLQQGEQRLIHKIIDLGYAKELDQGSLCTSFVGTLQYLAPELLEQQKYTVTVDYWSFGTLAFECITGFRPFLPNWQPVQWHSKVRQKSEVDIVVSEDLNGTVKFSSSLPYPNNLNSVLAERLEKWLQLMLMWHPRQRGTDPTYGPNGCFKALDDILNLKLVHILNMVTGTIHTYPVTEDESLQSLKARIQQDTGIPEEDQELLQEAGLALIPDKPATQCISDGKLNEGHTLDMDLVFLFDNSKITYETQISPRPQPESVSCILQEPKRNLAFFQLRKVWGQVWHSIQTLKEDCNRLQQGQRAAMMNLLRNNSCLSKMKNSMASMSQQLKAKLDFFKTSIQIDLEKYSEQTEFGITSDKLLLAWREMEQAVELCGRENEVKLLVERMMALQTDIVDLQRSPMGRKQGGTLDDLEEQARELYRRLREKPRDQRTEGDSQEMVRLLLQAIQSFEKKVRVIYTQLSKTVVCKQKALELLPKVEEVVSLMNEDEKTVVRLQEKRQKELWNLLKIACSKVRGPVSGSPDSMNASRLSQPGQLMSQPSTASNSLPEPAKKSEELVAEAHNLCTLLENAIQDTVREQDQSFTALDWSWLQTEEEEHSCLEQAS
Kind of test: Inhibition of human recombinant C-terminal FLAG-epitope-tagged IKK2 expressed in baculovirus infected insect cells using biotinylated IkappaBalpha peptide as substrate in presence of [gamma-33P]-ATP after 30 mins by resin-based scintillation counting method.

By IC50 is commonly meant the midpoint of a concentration-inhibition curve. For the compound `CC(=O)N1Cc2c(C(N)=O)nn(-c3ccc4c(c3)OCO4)c2-c2cc(NC(=O)c3cccnc3Cl)ccc21`, the IC50 was < 1000 nM.
Under `NC(=O)c1nn(-c2ccc3c(c2)OCO3)c2c1COc1ccc(NC(=O)c3cccnc3Cl)cc1-2` stands ≤ 1000 nM; under `CC(=O)N1Cc2c(C(N)=O)nn(-c3ccc(F)cc3)c2-c2cc(NC(=O)c3cccnc3Cl)ccc21`, < 1000 nM.
